In one assay the target is human TLR7 (Homo sapiens (Human), UniProt Q9NYK1). Briefly: TLR7 inhibition reporter assay (HEK-Blue SEAP). Type of assay: cell-based. As to conditions: HEK-Blue cells overexpressing human TLR7, gardiquimod 7.5 μM stimulation.
Another assay has as its target human TLR8 (Homo sapiens (Human), UniProt Q9NR97). Briefly: TLR8 inhibition reporter assay (HEK-Blue SEAP).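 Note: SEAP driven by IFN-β minimal promoter with five NF-κB and AP-1 sites, compounds tested 0.05 nM to 50 µM, 22 h incubation, inhibition relative to agonist plus DMSO wells.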
For the next assay, the target named is human TLR9 (Homo sapiens (Human), UniProt Q9NR96). Briefly: TLR9 inhibition reporter assay (HEK-Blue SEAP).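 Note: SEAP driven by IFN-β minimal promoter carrying five NF-κB and AP-1 sites, 22 h at 37 °C, compounds 0.05 nM–50 µM, inhibition scaled between agonist-plus-DMSO and reference-inhibitor wells.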
Where [1] appears, read: read-out: TLR8 IC50; HEK-Blue cells overexpressing human TLR8, R848 15.9 μM stimulation, SEAP reporter.
Where [2] appears, read: read-out: TLR9 IC50; HEK-Blue cells overexpressing human TLR9, ODN2006 5 nM stimulation, SEAP reporter.

Like-named read-outs stand apart in the source and are kept apart here.

human TLR7, sequence (Q9NYK1 27-1049): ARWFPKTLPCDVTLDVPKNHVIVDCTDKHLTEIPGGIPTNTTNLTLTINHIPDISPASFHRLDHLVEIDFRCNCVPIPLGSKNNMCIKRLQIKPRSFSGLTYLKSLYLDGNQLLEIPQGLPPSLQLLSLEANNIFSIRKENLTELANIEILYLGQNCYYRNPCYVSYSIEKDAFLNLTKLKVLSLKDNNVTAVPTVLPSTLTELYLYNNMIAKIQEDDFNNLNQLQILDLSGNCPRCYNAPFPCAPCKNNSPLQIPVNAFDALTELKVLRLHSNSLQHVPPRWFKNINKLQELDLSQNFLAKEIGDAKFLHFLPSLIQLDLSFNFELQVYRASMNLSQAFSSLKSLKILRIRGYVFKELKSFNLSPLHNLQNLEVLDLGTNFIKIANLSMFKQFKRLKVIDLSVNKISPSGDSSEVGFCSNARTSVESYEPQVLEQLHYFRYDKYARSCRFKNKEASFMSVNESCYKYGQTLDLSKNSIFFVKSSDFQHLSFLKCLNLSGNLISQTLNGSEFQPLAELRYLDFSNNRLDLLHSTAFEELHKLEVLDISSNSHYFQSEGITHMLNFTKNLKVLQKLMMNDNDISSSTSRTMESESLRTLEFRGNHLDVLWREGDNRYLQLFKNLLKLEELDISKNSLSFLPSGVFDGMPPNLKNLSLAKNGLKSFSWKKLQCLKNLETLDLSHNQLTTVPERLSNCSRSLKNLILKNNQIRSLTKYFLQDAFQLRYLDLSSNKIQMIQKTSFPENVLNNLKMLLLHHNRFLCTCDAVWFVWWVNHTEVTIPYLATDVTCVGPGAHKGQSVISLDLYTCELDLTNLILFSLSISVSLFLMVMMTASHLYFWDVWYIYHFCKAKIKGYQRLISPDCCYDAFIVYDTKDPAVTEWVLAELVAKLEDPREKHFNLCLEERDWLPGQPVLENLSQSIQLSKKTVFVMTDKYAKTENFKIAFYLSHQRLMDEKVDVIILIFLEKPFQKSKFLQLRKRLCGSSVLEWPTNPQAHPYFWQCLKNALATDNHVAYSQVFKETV
human TLR8, sequence (Q9NR97 27-1041): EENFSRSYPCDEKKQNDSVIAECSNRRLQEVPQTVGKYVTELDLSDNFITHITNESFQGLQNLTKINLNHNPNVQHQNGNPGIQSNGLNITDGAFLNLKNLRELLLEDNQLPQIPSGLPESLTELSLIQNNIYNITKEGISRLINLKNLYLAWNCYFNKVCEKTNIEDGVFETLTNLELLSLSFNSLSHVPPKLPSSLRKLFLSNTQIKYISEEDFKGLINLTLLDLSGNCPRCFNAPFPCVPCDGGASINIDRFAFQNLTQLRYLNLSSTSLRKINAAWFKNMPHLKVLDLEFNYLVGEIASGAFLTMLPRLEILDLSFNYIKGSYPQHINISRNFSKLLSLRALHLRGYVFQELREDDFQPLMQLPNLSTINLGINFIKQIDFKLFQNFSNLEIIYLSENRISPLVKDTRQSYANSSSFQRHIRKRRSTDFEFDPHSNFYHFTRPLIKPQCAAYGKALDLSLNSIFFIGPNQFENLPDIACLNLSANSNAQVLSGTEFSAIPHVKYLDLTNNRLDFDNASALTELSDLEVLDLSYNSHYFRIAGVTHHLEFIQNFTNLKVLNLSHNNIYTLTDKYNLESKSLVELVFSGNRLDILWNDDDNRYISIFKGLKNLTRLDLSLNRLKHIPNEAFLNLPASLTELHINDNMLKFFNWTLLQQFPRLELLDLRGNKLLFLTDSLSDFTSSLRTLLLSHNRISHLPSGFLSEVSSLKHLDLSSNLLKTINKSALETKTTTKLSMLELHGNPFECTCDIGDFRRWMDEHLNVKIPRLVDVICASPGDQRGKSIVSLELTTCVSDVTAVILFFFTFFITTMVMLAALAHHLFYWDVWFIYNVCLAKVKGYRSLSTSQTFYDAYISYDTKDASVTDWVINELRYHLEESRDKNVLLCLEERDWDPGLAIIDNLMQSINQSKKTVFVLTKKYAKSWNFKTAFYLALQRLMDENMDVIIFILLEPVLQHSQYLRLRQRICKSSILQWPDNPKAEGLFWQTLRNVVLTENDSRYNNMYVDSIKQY
human TLR9, sequence (Q9NR96 26-1032): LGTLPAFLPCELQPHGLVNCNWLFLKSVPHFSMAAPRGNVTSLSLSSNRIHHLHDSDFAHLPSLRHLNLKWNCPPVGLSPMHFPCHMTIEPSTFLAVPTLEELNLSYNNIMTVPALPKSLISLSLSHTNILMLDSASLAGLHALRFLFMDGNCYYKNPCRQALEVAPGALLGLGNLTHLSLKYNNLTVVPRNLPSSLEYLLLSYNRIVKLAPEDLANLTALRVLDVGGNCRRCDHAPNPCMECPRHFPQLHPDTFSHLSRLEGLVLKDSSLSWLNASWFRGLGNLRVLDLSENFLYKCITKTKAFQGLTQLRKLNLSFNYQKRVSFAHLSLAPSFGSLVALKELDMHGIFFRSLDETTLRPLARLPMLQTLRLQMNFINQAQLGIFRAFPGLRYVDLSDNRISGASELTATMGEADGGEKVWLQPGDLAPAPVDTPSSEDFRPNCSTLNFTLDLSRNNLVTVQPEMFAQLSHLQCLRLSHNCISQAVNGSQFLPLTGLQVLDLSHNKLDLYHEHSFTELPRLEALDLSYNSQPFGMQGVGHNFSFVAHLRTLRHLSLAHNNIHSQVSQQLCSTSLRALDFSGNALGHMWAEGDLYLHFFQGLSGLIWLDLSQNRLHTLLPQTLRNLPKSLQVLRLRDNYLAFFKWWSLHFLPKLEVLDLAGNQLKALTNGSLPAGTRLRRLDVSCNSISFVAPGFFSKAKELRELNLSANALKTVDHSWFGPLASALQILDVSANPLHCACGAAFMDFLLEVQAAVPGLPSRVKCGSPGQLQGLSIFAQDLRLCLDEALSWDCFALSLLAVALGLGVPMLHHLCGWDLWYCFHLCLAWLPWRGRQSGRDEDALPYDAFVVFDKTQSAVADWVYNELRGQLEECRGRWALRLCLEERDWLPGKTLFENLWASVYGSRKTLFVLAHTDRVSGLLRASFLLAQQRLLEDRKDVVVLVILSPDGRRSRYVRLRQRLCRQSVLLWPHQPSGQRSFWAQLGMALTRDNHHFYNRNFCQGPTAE
Description for human TLR9: HEK-Blue™-cells (Invivogen) overexpressing human TLR7, TLR8 or TLR9 receptors were used for screening inhibitors of these receptors using an inducible SEAP (secreted embryonic alkaline phosphatase) reporter gene under the control of the IFN-β minimal promoter fused to five NF-κB and AP-1-binding sites. Briefly, cells are seeded into Greiner 384 well plates (15000 cells per well for TLR7, 20,000 for TLR8 and 25,000 for TLR9) and then treated with test compounds in DMSO to yield a final dose response concentration range of 0.05 nM-50 μM. After a 30 minute compound pre-treatment at room temperature, the cells are then stimulated with a TLR7 ligand (gardiquimod at a final concentration of 7.5 μM), TLR8 ligand (R848 at a final concentration of 15.9 μM) or TLR9 ligand (ODN2006 at a final concentration of 5 nM) to activate NF-κB and AP-1 which induce the production of SEAP. After a 22 hour incubation at 37° C., 500 CO2, SEAP levels are determined with the addition of HEK-Blue™ Detection reagent (Invivogen), a cell culture medium that allows for detection of SEAP, according to manufacturer's specifications.

Turning to `COc1cc(-c2[nH]c3cnc(C4CCN(C5CCOCC5)CC4)c(F)c3c2C(C)C)cn2ncnc12` [Example 217], the half-maximal inhibitory concentration (IC50) is 3.4 nM against human TLR7, 4.4 nM on human TLR8 (read-out: TLR8 IC50; HEK-Blue cells overexpressing human TLR8; R848 15.9 μM stimulation; SEAP reporter) and 7600 nM at human TLR9 (read-out: TLR9 IC50; HEK-Blue cells overexpressing human TLR9; ODN2006 5 nM stimulation; SEAP reporter).
Turning to `COc1cc(-c2[nH]c3cnc(C4CCC(NCC(C)(C)C)C4)cc3c2C(C)C)cn2ncnc12` (stereo not drawn) [Example 95], the IC50 at human TLR7 stood at 41 nM; on human TLR8 (setting [1]), 35 nM; at human TLR9 (setting [2]), 1380 nM.
The matching figures for `COc1ccc(-c2[nH]c3cnc(C4CCN(C5CCN(CC(C)C)CC5)CC4)cc3c2C)cc1OC` [Example 9]: 551 nM, 8220 nM and 26 nM.
Take `Cc1cc(-c2[nH]c3cnc(C4CCN(CC(C)(C)O)CC4)c(F)c3c2C(C)C)cn2ncnc12` [Example 128]: the IC50 stood at 1.9 nM at human TLR7, 1.4 nM on human TLR8 (setting [1]) and 2480 nM on human TLR9 (setting [2]).
Consider `COc1cc(-c2[nH]c3cnc(C4CCC(N5CC6(COC6)C5)CC4)c(C)c3c2C(C)C)cn2ncnc12` (stereo not drawn) [Example 245], for which the values for the IC50 at human TLR7, at human TLR8 (setting [1]) and at human TLR9 (setting [2]) were 6.3 nM, 47 nM and 257 nM, respectively.
Turning to `COc1cc(-c2[nH]c3cnc(N4CC5(CN(C(=O)CN6CCOCC6)C5)C4)c(F)c3c2C(C)C)cn2ncnc12` [Example 367, 1-(6-(4-fluoro-3-isopropyl-2-(8-methoxy-[1,2,4]triazolo[1,5-a]pyridin-6-yl)-1H-pyrrolo[2,3-c]pyridin-5-yl)-2,6-diazaspiro[3.3]heptan-2-yl)-2-morpholinoethan-1-one], the IC50 was 159 nM on human TLR7, 52 nM at human TLR8 (setting [1]) and > 50000 nM on human TLR9 (setting [2]).
Take `Cc1cc(-c2[nH]c3cnc(C4CCC(NCC(C)(C)C)CC4)c(F)c3c2C(C)C)cn2ncnc12` (stereo not drawn) [Example 260]: the 50% inhibitory concentration (IC50) is 1.4 nM at human TLR7, 1.7 nM on human TLR8 (setting [1]) and 837 nM at human TLR9 (setting [2]).
As for `Cc1c(-c2[nH]c3cnc(C4CCC(NC5CCOCC5)CC4)c(C)c3c2C(C)C)cn2ncnc2c1C` (stereo not drawn) [Example 120], the results for the half-maximal inhibitory concentration (IC50) against human TLR7, on human TLR8 (setting [1]) and at human TLR9 (setting [2]) were 2.3 nM, 2 nM and 71 nM, respectively.
The corresponding values for `COc1cc(-c2[nH]c3cnc(C4CCN(C5COC5)CC4)c(C)c3c2C(C)C)cn2ncnc12` [Example 16] are 4.7 nM, 26 nM and 1290 nM.
`Cc1cc(-c2[nH]c3cnc(C4CCN(CC5(C)COC5)CC4)c(F)c3c2C(C)C)cn2ncnc12` [Example 250]: the figures for the half-inhibitory concentration (IC50) on human TLR7, on human TLR8 (setting [1]) and on human TLR9 (setting [2]) were 3.2 nM, 3.4 nM and 4770 nM, respectively.
The matching figures for `Cc1c(-c2[nH]c3cnc(N4CC5(CNC5)C4)c(F)c3c2C(C)C)cn2ncnc2c1C` [Example 392, 6-(4-fluoro-3-isopropyl-5-(2,6-diazaspiro[3.3]heptan-2-yl)-1H-pyrrolo[2,3-c]pyridin-2-yl)-7,8-dimethyl-[1,2,4]triazolo[1,5-a]pyridine]: 24 nM, 13 nM and 8840 nM.
For the compound `Cc1c(-c2[nH]c3cnc(N4CCC(NCC(C)(C)O)CC4)c(C)c3c2C(C)C)cn2ncnc2c1C` [Example 88], the IC50 at human TLR7 turned out to be 0.62 nM; on human TLR8 (setting [1]), 0.28 nM; at human TLR9 (setting [2]), 322 nM.
On to `Cc1c(-c2[nH]c3cnc(C4CCC(NC56CC(C5)C6)CC4)c(F)c3c2C(C)C)cn2ncnc2c1C` (stereo not drawn) [Example 239], for which the IC50 worked out at 2.6 nM against human TLR7, 2.6 nM at human TLR8 (setting [1]) and 15900 nM on human TLR9 (setting [2]).
Regarding `Cc1cc(-c2[nH]c3cnc(C4CCN(C5COC5)CC4)cc3c2C(C)C)cn2ncnc12` [Example 341], the IC50 at human TLR7 came to 3.2 nM; on human TLR8 (setting [1]), 21 nM; at human TLR9 (setting [2]) it was 1030 nM.
Regarding `COc1cc(-c2[nH]c3cnc(N4CCN(CC(N)=O)CC4)c(C)c3c2C(C)C)cn2ncnc12` [Example 155], the IC50 at human TLR7 is 7.3 nM; on human TLR8 (setting [1]), 5 nM; on human TLR9 (setting [2]), 6310 nM.
As for `Cc1c(-c2[nH]c3cnc(N4CCN(CC(C)(C)C)CC4)c(F)c3c2C(C)C)cn2ncnc2c1C` [Example 432], the figures for the IC50 at human TLR7, on human TLR8 (setting [1]) and on human TLR9 (setting [2]) were 102 nM, 2.7 nM and > 50000 nM, respectively.

Values taken from patent US11912703B2, “6-azaindole compounds” (BRISTOL-MYERS SQUIBB COMPANY, priority 2017, dated 2024).
